According to patent US20130345159A1, “PURIFIED CARDIOGENIN ISOMER AND RELATED METHODS” (HUYA BIOSCIENCE INTERNATIONAL LLC, priority 2010, published 2013):
“Also recorded” adds a separate entry of the source.

Tests used:
GFP-MSCs = assay: differentiation of GFP-MSCs into beating cardiac myocytes in co-culture with rat cardiac myocytes; format: cell-based, mice; conditions: 10 μg/ml
From the text: FIG. 18 depicts HUYA-1-induced differentiation of GFP-MSCs into beating cardiac myocytes in co-culture system. This screenshot was taken from a video showing beating GFP-positive myocytes (enclosed areas) differentiated from the GFP-MSCs, which were co-cultured with rat cardiac myocytes and fibroblasts and then treated with HUYA-1. Since the culture contained non-GFP myocytes and fibroblasts and GFP-MSCs, any beating cells with GFP-positive signals that were identified must have differentiated from GFP-MSCs.
Bone marrow GFP-MSCs were isolated from the tibias/femur bones of GFP-transgenic mice. The GFP-MSCs were co-cultured with the cardiac myocytes isolated from neonatal SD rats in the presence of HUYA-1 (10 μg/ml IMDM culture medium) to mimic the cardiac micro-environment. The cultures were investigated daily, under a fluorescent microscope, to identify beating GFP-positive cells and to gauge the morphological transition of the cultured GFP-MSCs.

[1] = test system: mesenchymal stem cells (MSCs); assay: cardiogenic morphological transition of cultured MSCs (phase contrast microscope); format: cell-based, rat; conditions: for MSCs undergoing narrowing and becoming more refractive (cardiogenic morphological transition), D3 / MSCs undergoing narrowing and becoming more refractive (cardiogenic morphological transition), D7: 10 μg/ml; for MSCs undergoing narrowing and becoming more refractive (cardiogenic morphological transition), D3: treated for 3 days; for MSCs undergoing narrowing and becoming more refractive (cardiogenic morphological transition), D7: treated for 7 days; for activity in inducing cardiogenic differentiation of MSCs (in words): summary statements
Experimental: FIG. 14 presents photomicrographs that illustrate the activity of Car, HUYA-1 and HUYA-2, each 10 μg/ml, in inducing the cardiogenic morphological transition of mesenchymal stem cells (MSCs). D0, cultures of MSCs were set up before any treatment. The morphology of the MSCs was characterized by flat, irregular, low refracted and well-spread shapes (circles). D3, sample of the cultured MSCs were treated for 3 days with compounds as respectively labeled. […] D7, the cultured MSCs samples were treated for 7 days with compounds as respectively labeled. More MSCs (˜48%) in Car- and HUYA-1-treated cultures underwent narrowing and became more refractive (circles).
FIG. 15 provides a comparison, via photomicrographs, of HUYA-3 (10 μg/ml) with HUYA-4 (10 μg/ml) in inducing cardiogenic morphological transition of MSCs. Ctrl denotes the MSCs treated with vehicle (10% DMSO in equivalent volume). D0, the MSCs cultures were set before any treatment. The morphology of the MSCs was characterized by flat, irregular, low refracted and well-spread shapes (circles). D3, sample of the cultured MSCs were treated for 3 days with compounds as respectively labeled. […] D7, the cultured MSCs samples were treated for 7 days with compounds as respectively labeled. A similar amount of the MSCs (˜22%) in HUYA-4-treated cultures became narrowing and more refractive (ovals).
Testing was performed according to the procedures described in the following: The tibias/femur bones of rats were removed and the BM was flushed out of the bones with alpha IMDM culture medium. The BM was mixed well and centrifuged at 1,500 rpm for 5 minutes. The cell pellet was suspended with 3 ml culture medium, and the forming cell suspension was carefully put on 4 ml Ficoll solution, to minimize disturbance, and then was centrifuged at […] for 30 minutes. The second layer was transferred into a tube and washed twice with PBS to remove Ficoll (1,200 rpm for 5 minutes). The resulting cell pellet was resuspended in IMDM culture medium containing 10% heat-inactivated FBS (GIBCO) and 1% penicillin/streptomycin antibiotic mixture, and this was used for the tests. Non-adherent cells were discarded after 24 hours culturing. The adherent cells were cultured by changing medium every 3 days. The cells became nearly confluent after 14 days culture. To activate the cardiogenic morphology transition, the MSCs were cultured for 7 days in the presence of the HUYA-1, HUYA-2, HUYA-3, HUYA-4 or Car (10 μg/ml IMDM culture medium), respectively. The treating period-dependent morphological transition was evaluated, on a time-lapse basis, with a phase contrast microscope.

[2] = test system: mesenchymal stem cells (MSCs); assay: fluorescent immunocytochemistry for cardiogenic differentiation markers Mef2a and MHC beta in treated MSCs; format: cell-based, rat; conditions: 10 μg/ml; for treated cells with Mef2a-positive staining (D3): treated for 3 days; for treated cells with MHC beta-positive signals (D7): treated for 7 days
Experimental: FIG. 16 depicts immunofluorescence staining for expression of cardiogenic differentiation markers, Mef2a (fluorescence in D3) and beta, MHC beta (fluorescence in D7). D3 and D7, the cultured MSCs samples were treated with the compounds, as labeled, for 3 and 7 days, respectively. Neg is the negative control of MSCs culture, with no use of the first antibody specific to Mef2a or MHC beta, showing negative signals of Mef2a (D3) and MHC (D7) staining Ctrl represents the cultured MSCs treated with the equivalent volume of 10% DMSO, with almost no positive Mef2a (D3) and MHC beta (D7) signals observed.
FIG. 17 depicts immunofluorescence staining for expressions of early cardiogenic differentiation marker, Mef2a (fluorescence in D3) and cardiac specific myosin heavy chain beta, MHC (fluorescence in D7). D3 and D7, the cultured MSCs samples were treated with the compounds, as labeled, for 3 and 7 days, respectively.
The method for the fluorescent-immunostaining is summarize briefly: The cultured cells were fixed with 4% paraformaldehyde in PBS for 15 minutes and permeabilized with 0.5% Triton X-100 for 15 minutes. Dilution of antibodies was as follows: rabbit polyclonal antibodies specific to rat MEF2a (1:500) and mouse monoclonal antibodies specific to MHC (1:500) (both antibodies from Abcam®). Secondary antibodies were goat anti-mouse and rabbit anti-IgG antibodies conjugated with fluorophore (FITC 495/528 and Cy5 650/667, products of Abcam®), respectively. The nuclei were stained with DAPI. Examined by fluorescent microscopy were the cardiogenic differentiation-associated morphological transition and specific marker protein expression of the cultured MSCs.

[3] = stress tests of the separated cardiogenin isomers; conditions: storage in MTBE/IPA=50:50 or as solids at 40° C. for 24 hours
Experimental: Stress tests were performed to determine whether the two cardiogenin isomers separated from each other are stable and not converting into each other. In particular, the two cardiogenin isomers were stressed by storage in MTBE/IPA=50:50 or as solids at 40° C. (the major isomer in solution and solid; the minor isomer only in solution) for 24 hours.

[4] = solubility in cell culture medium; format: physicochemical; conditions: compared with HUYA-1
From the text: The DMSO concentration was increased from 5% to 10% to increase the solubility of HUYA-4.

[5] = listed as cardiogenin major isomer

| Compound | differentiation of MSCs into beating cardiac myocytes (GFP-MSCs) | differentiation of MSCs into beating cardiac myocytes (GFP-MSCs; [5]) | MSCs undergoing narrowing and becoming more refractive (cardiogenic morphological transition), D3 [1] | MSCs undergoing narrowing and becoming more refractive (cardiogenic morphological transition), D7 [1] | cultured MSCs induced into cardiogenic differentiation ([1]; cell culture, summary of FIGS. 14 and 15) | activity in inducing cardiogenic differentiation of MSCs (in words) [1] | activity in inducing cardiogenic differentiation of MSCs (in words) [1, 5] | activity in inducing cardiogenic differentiation of MSCs (in words) ([1]; listed as isolated cardiogenin major isomer) | treated cells with Mef2a-positive staining (D3) [2] | treated cells with MHC beta-positive signals (D7) [2] [%] | stability under stress [3] | activity in inducing cardiogenic differentiation of MSCs (in words) ([1]; listed as minor isomer) | solubility in cell culture medium [4] | activity in inducing cardiogenic differentiation of MSCs (in words) ([1]; listed as aglycone) |
| --- | --- | --- | --- | --- | --- | --- | --- | --- | --- | --- | --- | --- | --- | --- |
| C[C@@H]1CC[C@]2(C(=O)OC3OC(CO)C(O)C(O)C3O)CC[C@]3(C)C(=CCC4[C@@]5(C)C[C@@H](O)[C@H](O)[C@@](C)(CO)C5CC[C@]43C)C2[C@]1(C)O (stereo partly shown) [HUYA-1, cardiogenin] | induced cardiogenic differentiation of the GFP-MSCs to form beating cardiac myocytes; also recorded: can enhance the cardiogenic differentiation of MSCs into beating cardiac myocytes | beating cardiomyocytes differentiate from MSCs | ~31% | ~48% | more than 20% | most active compound | substantially enhanced differentiation into cardiomyocytes; also recorded: active | biologically active | approximately 15% | 20 |  |  |  |  |
| cardiogenin [HUYA-2] |  |  | did not show clear morphological changes | no significant morphological change |  | essentially inactive |  |  | almost no positive signals | ~3 | The same picture was obtained | inactive |  |  |
| C[C@@H]1CC[C@]2(C(=O)O)CC[C@]3(C)C(=CCC4[C@@]5(C)C[C@@H](O)[C@H](O)[C@@](C)(CO)C5CC[C@]43C)C2[C@]1(C)O (stereo partly shown) [HUYA-4] | beating cardiomyocytes differentiate from MSCs |  | ~20% | ~22% |  | induced MSCs into cardiogenic differentiation |  |  | ~6% | ~8 |  |  | lower solubility | substantially enhanced differentiation into cardiomyocytes |
